Measurements: US6706702B2, “Aryl fused azapolycyclic compounds” (Pfizer Inc., priority 1998, dated 2004)

melting point | Structure (SMILES)
230 to 234 °C | Cl.FC(F)Oc1ccc2c(c1)CC1CNCC2C1 (stereo not shown)
272 to 274 °C | COc1cccc2c1CC1CNCC2C1.Cl (stereo not shown)
202 to 203 °C | Cl.Fc1ccc2c(c1)CC1CC2CN(Cc2ccccc2)C1 (stereo not shown)
241 to 243 °C | Cl.c1c2c(cc3c1OCO3)C1CNCC(C2)C1 (stereo not shown)
253.5 to 258 °C | COc1ccc2c(c1)CC1CNCC2C1.Cl (stereo not shown)
215 to 220 °C | Cl.O=[N+]([O-])c1ccc2c(c1)C1CNCC(C2)C1 (stereo not shown)
240 to 242 °C | Cl.c1cncc(-c2ccc3c(c2)CC2CNCC3C2)c1 (stereo not shown)
